What all share (format): biochemical
One test addresses Flt-3 (Homo sapiens (Human), UniProt P36888). The experiment in a line: Enzyme selectivity test (ELISA), Flt-3. As for the experimental part:
(§1) 1) Enzyme reaction substrate Poly(Glu, Tyr) 4:1 was diluted to 20 μg/mL with potassium-free PBS (10 mM sodium phosphate buffer, 150 mM NaCl, pH 7.2-7.4), and the microtiter plate was coated with 125 μL/well and placed at 37° C. for 12-16 hours of reaction. The liquid in the well was discard. The plate was washed three times with T-PBS (potassium-free PBS containing 0.1% Tween-20, 200 μL/well), 5 minutes each time. The ELISA plate was dried in an oven at 37° C. for 1 to 2 hours.
(§2) 2) Reaction buffer (50 mM HEPES pH 7.4, 50 mM MgCl2, 0.5 mM MnCl2, 0.2 mM Na3VO4, 1 mM DTT) diluted ATP solution (49 μL) was added to each well, 1 μL of the compound to be tested was added to each well, and then 50 μL of DDR2 kinase domain recombinant protein diluted in the reaction buffer was added to start the reaction. Two control wells without ATP were set in each experiment. The plate placed on a shaker (100 rpm) at 37° C. for 1 hour of reaction. The liquid in the well was discarded and the plate was washed three times with T-PBS.
(§3) 3) Antibody PY99 dilution solution (the antibody was diluted 1:500 with T-PBS containing BSA 5 mg/mL) was added at 100 μL/well, and shaken on a shaker at 37° C. for 0.5 hour of reaction. The liquid in the well was discarded and the plate was washed three times with T-PBS.
(§4) 4) Horseradish peroxidase labeled goat anti-murine secondary antibody dilution solution (the antibody is diluted 1:2000 with T-PBS containing BSA 5 mg/ml) was added at 100 μL/well, and shaken on a shaker at 37° C. for 0.5 hour of reaction. The liquid in the well was discarded and the plate was washed three times with T-PBS.
(§5) 5) 2 mg/ml of OPD color developing solution [diluted with 0.1 M citric acid-sodium citrate buffer (pH=5.4) containing 0.03% H2O2] was added at 100 μL/well and reacted for 1 to 10 minutes at 25° C. in the dark.
(§6) 6) 2M H2SO4 was added at 50 μL/well to stop the reaction, and a tunable wavelength microplate reader VERSAmax was used for reading at a wavelength of 490 nm.
(§7) The IC50 value was obtained by four-parameter regression using the software that came with the microplate reader. […]
On the technique in general: ELISA stands for enzyme-linked immunosorbent assay.

The next test deals with IGF-1R (Homo sapiens (Human), UniProt P08069). The experiment in a line: Enzyme selectivity test (ELISA), IGF-1R. As for the experimental part:
as §1, §2, §3, §4, §5, §6, §7

In another test the target is VEGFR-1 (Homo sapiens (Human), UniProt P17948). The experiment in a line: Enzyme selectivity test (ELISA), VEGFR-1. As for the experimental part: as §1, §2, §3, §4, §5, §6, §7
Chain of VEGFR-1 (P17948 27-1338, species assumed): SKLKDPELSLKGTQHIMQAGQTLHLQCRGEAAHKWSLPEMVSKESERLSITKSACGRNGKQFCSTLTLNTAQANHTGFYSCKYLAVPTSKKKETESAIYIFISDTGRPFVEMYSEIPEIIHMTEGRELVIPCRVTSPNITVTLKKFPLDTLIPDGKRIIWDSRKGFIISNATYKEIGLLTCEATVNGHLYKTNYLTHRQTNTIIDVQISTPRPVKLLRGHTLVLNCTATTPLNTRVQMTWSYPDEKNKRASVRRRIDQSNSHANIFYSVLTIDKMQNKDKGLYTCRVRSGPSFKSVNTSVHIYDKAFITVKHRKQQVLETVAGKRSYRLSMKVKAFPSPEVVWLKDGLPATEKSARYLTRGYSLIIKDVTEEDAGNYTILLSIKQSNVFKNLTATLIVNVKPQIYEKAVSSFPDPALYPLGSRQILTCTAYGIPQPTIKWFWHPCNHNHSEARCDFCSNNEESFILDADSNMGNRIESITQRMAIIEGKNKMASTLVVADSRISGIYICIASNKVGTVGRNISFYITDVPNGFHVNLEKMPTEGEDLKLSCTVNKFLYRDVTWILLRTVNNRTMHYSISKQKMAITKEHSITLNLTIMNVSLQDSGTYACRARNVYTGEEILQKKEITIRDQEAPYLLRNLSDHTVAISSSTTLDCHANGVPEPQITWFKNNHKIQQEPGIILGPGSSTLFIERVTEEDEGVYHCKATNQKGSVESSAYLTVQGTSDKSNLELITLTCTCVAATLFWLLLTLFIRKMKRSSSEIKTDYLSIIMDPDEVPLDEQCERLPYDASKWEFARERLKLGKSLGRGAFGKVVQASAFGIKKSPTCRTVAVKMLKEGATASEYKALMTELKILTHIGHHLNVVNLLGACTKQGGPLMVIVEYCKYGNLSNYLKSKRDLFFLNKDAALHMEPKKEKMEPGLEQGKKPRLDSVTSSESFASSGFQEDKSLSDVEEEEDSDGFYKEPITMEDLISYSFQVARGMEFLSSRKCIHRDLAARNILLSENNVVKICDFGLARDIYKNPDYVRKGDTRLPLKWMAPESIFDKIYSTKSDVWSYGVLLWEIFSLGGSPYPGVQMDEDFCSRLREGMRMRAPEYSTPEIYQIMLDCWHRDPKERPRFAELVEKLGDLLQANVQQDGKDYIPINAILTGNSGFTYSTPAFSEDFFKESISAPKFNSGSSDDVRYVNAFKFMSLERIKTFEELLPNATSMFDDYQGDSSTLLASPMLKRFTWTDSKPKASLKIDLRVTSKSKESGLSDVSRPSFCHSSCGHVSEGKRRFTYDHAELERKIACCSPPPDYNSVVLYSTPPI
Another test addresses EPH-A2 (Homo sapiens (Human), UniProt P29317). The experiment in a line: Enzyme selectivity test (ELISA), EPH-A2. As for the experimental part: as §1, §2, §3, §4, §5, §6, §7
In a further test the target is DDR2 (Homo sapiens (Human), UniProt Q16832). The experiment in a line: DDR2 enzyme activity test (ELISA). Particulars: read-out: DDR2 IC50. The essentials:
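Recombinant DDR2 kinase domain (baculovirus-expressed) phosphorylates coated Poly(Glu,Tyr) 4:1 in HEPES pH 7.4 buffer with Mg/Mn, 1% DMSO, 1 h at 37 °C. Phosphotyrosine detected by PY99/HRP ELISA with OPD read at 490 nm; IC50 from four-parameter fit.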

The next test concerns the target PDGFR-α (Homo sapiens (Human), UniProt P16234). The experiment in a line: Enzyme selectivity test (ELISA), PDGFR-α. As to the method:
as §1, §2, §3, §4, §5, §6, §7

For another test, the target named is RET (Homo sapiens (Human), UniProt P07949). The experiment in a line: Enzyme selectivity test (ELISA), RET. As for the experimental part:
as §1, §2, §3, §4, §5, §6, §7

Chain of PDGFR-α (P16234 24-1089, species assumed): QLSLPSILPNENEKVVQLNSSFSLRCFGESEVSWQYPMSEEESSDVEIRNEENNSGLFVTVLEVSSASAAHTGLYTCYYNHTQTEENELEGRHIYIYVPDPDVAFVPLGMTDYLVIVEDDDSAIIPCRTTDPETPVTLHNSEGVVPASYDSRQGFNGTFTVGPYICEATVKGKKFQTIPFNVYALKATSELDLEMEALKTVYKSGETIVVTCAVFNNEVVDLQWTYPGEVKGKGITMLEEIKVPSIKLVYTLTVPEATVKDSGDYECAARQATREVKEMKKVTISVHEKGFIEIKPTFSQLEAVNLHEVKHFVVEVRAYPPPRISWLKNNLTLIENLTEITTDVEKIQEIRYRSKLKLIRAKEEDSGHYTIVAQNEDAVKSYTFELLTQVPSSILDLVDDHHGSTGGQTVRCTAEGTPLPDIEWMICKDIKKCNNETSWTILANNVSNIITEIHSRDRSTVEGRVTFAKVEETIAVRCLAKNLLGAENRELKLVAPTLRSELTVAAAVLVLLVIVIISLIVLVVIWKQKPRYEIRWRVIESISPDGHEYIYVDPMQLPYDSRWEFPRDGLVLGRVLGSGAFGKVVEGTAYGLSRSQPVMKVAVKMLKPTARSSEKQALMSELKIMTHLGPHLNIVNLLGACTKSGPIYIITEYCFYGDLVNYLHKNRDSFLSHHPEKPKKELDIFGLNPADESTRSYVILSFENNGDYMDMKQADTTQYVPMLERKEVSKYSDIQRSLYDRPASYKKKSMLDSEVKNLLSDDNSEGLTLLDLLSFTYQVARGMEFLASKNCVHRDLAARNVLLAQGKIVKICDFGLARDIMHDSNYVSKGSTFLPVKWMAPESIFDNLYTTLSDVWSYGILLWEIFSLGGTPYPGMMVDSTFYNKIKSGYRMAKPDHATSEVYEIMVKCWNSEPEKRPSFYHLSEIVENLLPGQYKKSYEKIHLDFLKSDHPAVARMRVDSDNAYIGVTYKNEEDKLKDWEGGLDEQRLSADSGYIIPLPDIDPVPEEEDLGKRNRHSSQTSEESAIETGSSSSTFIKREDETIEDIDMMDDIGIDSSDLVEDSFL
Chain of EPH-A2 (P29317 24-976, species assumed): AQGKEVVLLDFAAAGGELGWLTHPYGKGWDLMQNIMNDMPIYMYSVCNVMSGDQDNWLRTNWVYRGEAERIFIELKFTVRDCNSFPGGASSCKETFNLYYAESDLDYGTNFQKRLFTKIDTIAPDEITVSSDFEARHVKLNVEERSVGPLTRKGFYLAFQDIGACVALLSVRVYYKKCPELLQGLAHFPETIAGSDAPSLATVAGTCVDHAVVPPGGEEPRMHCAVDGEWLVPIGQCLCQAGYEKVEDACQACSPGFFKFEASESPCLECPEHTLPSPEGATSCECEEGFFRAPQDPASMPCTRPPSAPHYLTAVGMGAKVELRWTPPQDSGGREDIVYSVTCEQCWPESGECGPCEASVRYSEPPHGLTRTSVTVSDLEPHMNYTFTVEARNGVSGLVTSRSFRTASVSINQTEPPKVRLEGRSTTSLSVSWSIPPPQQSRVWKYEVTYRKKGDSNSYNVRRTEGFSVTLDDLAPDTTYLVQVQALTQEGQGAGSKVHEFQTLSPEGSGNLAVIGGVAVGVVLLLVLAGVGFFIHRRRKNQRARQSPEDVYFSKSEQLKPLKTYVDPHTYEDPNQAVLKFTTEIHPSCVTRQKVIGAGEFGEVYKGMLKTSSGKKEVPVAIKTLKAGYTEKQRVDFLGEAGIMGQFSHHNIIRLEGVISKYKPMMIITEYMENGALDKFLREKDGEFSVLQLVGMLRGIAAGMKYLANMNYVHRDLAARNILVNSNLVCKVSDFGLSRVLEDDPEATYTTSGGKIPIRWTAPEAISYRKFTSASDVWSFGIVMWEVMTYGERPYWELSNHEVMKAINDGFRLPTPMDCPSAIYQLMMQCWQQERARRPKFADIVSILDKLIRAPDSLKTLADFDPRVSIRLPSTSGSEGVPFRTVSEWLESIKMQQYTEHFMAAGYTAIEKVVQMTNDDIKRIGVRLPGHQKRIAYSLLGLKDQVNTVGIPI
Chain of IGF-1R (P08069 31-1367, species assumed): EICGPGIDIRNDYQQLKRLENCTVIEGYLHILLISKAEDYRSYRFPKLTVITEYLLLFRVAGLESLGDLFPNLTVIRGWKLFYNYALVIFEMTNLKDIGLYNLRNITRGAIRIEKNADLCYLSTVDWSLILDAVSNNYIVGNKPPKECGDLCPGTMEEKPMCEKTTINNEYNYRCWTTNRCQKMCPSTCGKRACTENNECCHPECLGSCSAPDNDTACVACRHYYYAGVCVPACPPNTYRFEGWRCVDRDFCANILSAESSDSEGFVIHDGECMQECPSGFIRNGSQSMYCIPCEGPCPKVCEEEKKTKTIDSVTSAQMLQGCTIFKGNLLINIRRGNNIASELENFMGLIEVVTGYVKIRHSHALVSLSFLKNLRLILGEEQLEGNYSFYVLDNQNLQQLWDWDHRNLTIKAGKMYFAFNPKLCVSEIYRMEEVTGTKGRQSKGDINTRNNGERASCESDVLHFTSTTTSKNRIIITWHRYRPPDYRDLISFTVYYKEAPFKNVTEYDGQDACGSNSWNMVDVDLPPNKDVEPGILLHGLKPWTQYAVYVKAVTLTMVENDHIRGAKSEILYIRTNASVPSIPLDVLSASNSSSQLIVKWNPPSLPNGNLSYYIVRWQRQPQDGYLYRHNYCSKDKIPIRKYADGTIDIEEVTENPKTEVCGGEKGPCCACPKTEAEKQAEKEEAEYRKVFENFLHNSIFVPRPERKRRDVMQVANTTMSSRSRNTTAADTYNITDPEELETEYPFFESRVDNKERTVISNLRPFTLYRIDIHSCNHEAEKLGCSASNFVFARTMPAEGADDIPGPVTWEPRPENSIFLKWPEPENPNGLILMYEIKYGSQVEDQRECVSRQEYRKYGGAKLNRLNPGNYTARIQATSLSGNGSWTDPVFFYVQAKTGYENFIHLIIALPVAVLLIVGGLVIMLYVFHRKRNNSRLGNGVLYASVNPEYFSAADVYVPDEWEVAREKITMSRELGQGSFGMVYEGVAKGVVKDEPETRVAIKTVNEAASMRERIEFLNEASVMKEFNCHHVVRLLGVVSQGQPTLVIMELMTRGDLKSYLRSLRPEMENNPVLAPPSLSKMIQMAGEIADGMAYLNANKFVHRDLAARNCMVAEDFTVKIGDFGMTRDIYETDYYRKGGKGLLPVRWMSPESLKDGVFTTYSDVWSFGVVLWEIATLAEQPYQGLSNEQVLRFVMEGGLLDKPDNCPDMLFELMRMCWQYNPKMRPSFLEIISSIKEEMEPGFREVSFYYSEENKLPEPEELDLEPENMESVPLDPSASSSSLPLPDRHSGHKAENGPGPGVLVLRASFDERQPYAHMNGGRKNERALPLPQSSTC
Chain of DDR2 (Q16832 563-849): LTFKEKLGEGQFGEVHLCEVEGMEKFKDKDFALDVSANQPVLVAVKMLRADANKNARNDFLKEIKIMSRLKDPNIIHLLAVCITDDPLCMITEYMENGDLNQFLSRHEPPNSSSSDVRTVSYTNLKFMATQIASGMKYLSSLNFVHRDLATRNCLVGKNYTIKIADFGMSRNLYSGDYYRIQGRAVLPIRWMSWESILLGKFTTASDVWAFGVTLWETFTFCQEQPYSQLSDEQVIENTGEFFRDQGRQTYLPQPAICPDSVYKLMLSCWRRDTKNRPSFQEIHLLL

On to `O=C(Nc1cccc(C(F)(F)F)c1)c1ccc(C2CC2)c(-c2ccc3nc(Nc4cnn(C5CC5)c4)ncc3c2)c1` [Compound S15, 4-cyclopropyl-3-(2-((1-cyclopropyl-1H-pyrazol-4-yl)amino)quinazolin-6-yl)-N-(3-(trifluoromethyl)phenyl)benzamide], for which the IC50 is greater than 1000 nM against Flt-3; greater than 1000 nM against IGF-1R; greater than 1000 nM against VEGFR-1; greater than 10 nM on EPH-A2; 6.1 ± 0.5 nM at DDR2; greater than 1000 nM at PDGFR-α. Besides, the IC50 against RET is greater than 1000 nM.

The term IC50 denotes the concentration that gives 50% inhibition.
